Legend:
HEK293 cells [1] = experiment: Preliminary screening as DNA vectors, GFP transfection of HEK293 cells; assay type: cell-based; conditions: HEK293 cells; lipid/DOPE liposome with 75 ng plasmid DNA (psin-EGFP-IRES-Puro); number of cells expressing GFP divided by total number of nuclei (Hoechst)
Method in brief: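 Lipid + DOPE liposomes (NaOAc, pH 5.6) complexed w/ 75 ng psin-EGFP-IRES-Puro, 30 min RT; added to 3-5×10^4 HEK293/well, 37° C. Hoechst 0.2 μg/mL at 20-24 h, imaged after further 20-24 h. Efficiency = GFP+ cells / total nuclei.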

HEK293 cells [2] = experiment: Preliminary screening as mRNA vectors, EGFP mRNA transfection of HEK293 cells; assay type: cell-based; conditions: HEK293 cells, 96-well plates, EGFP mRNA 50 ng per well; percentage of GFP fluorescent cells relative to total number of cells (Hoechst)
Method in brief: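 Each well of HEK293 cells received 50 ng of EGFP mRNA. Efficiency was expressed as percent GFP-expressing cells over Hoechst-defined total cell number.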

Row | Structure (SMILES) | Absolute DNA transfection efficiency in HEK293 cells (HEK293 cells [1]) | Absolute mRNA transfection efficiency in HEK293 cells (HEK293 cells [2])
1 | CCCCCCCCCCCCCNc1nc(NCCN(C)C)nc(N(CCCCCCCCCCCC)CCCCCCCCCCCC)n1 [N13^2N12D1] | 1.2% | 4.7%
2 | CCCCCCCCCCCSc1nc(NCCN(CC)CC)nc(SCCCCCCCCC)n1 [Compound S9S11D7] | 8.1% | 2.5%
3 | CCCCCCCCCCCCCCSc1nc(NCCN2CCOCC2)nc(SCCCCCCCC)n1 [Compound S8S14D2] | 18.5% | 0.4%
4 | CCCCCCCCCCCCSc1nc(NCCN2CCN(C)CC2)nc(SCCCCCCCCCCC)n1 [Compound S11S12D5] | 2.8% | 9.2%
5 | CCCCCCCCCCCCCCCCCCNc1nc(NCCCCCCCCCCCCCCCC)nc(NCCN2CCCCC2)n1 [Compound N16N18D4] | 0.6% | 1.8%
6 | CCCCCCCCCCCCCCCCCCSc1nc(NCCCN(C)C)nc(SCCCCCCCCCCC)n1 [Compound S11S18D6] | 3.6% | 6.0%
7 | CCCCCCCCCCSc1nc(NCCCN2CCOCC2)nc(SCCCCCCCCCC)n1 [Compound S10S10D8] | 14.0% | 13.8%
8 | CCCCCCNc1nc(NCCCCCC)nc(NCCN2CCOCC2)n1 [Compound N6N6D2] | 0.0% | 0.0%
9 | CCCCCCCCCCCCSc1nc(NCCN2CCCCC2)nc(SCCCCCCCCCCCC)n1 [Compound S12S12D4] | 4.1% | 36.3%
10 | CCCCCCCCCCCCCCCNc1nc(NCCCCCC)nc(NCCN(CC)CC)n1 [Compound N6N15D7] | 0.0% | 0.0%
11 | CCCCCCCCCCCCCNc1nc(NCCCCCCCCCCC)nc(NCCN2CCCCC2)n1 [Compound N11N13D4] | 0.0% | 0.9%
12 | CCCCCCCCCCCSc1nc(NCC2CCN(C)CC2)nc(SCCCCCCCCCCC)n1 [Compound S11S11D10] | 12.2% | 13.7%
13 | CCCCCCCCCCCCCCSc1nc(NCCCN2CCOCC2)nc(SCCCCCCCCCCCC)n1 [Compound S12S14D8] | 3.7% | 1.3%
14 | CCCCCCCCCCCCNc1nc(NCCCCCCCCCCC)nc(NCCN2CCCCC2)n1 [Compound N11N12D4] | 0.0% | 1.2%
15 | CCCCCCCCCCCCCCCCCCNc1nc(NCCCCCCCCC)nc(NCCN2CCOCC2)n1 [Compound N9N18D2] | 3.6% | 25.3%
16 | CCCCCCCCCCCCCCCNc1nc(NCCCCCCCCCCCCCCC)nc(NCCCN2CCN(C)CC2)n1 [Compound N15N15D9] | 0.4% | 0.0%
17 | CCCCCCCCCCCCCCCCNc1nc(NCCCCCCCC)nc(NCCCN(C)C)n1 [Compound N8N16D6] | 2.4% | 1.5%
18 | CCCCCCCCCCCCCCCCCCNc1nc(NCCCCCCCCCCCCCCCC)nc(NCCN(CC)CC)n1 [Compound N16N18D7] | 0.0% | 0.0%
19 | CCCCCCCCCCCCCNc1nc(NCCCN2CCN(C)CC2)nc(N(CCCCCCCCCCCC)CCCCCCCCCCCC)n1 [N13^2N12D9] | 1.7% | 2.3%
20 | CCCCCCCCCCCCNc1nc(NCCN2CCCC2)nc(N(CCCCCCCCCCCC)CCCCCCCCCCCC)n1 [N12^2N12D3] | 3.2% | 5.8%
21 | CCCCCCCCCCCSc1nc(NCCCN(C)C)nc(SCCCCCCCCC)n1 [Compound S9S11D6] | 41.9% | 85.1%
22 | CCCCCCCCNc1nc(NCCCCCCCC)nc(NCCN(CC)CC)n1 [Compound N8N8D7] | 0.0% | 0.0%
23 | CCCCCCCCCCCCN(CCCCCCCCCCCC)c1nc(NCCN2CCN(C)CC2)nc(N(CCCCCCCCCCCC)CCCCCCCCCCCC)n1 [2N12^2N12D5] | 0.0% | 2.7%
24 | CCCCCCCCCCCCCCCCNc1nc(NCCCCCCCCCCCCCCC)nc(NCCCN2CCOCC2)n1 [Compound N15N16D8] | 0.0% | 0.0%

Row | Structure (SMILES) | Absolute DNA transfection efficiency in HEK293 cells (HEK293 cells [1]) | Absolute mRNA transfection efficiency in HEK293 cells (HEK293 cells [2])
25 | CCCCCCCCCCCCCCCSc1nc(NCCN(CC)CC)nc(SCCCCCCCCCCCCCCC)n1 [Compound S15S15D7] | 0.6% | 0.5%
26 | CCCCCCCCCCCNc1nc(NCCCCCCCC)nc(NCCCN(C)C)n1 [Compound N8N11D6] | 0.3% | 0.1%
27 | CCCCCCCCCCCCCCCCNc1nc(NCCCCCCCCCCCCCCC)nc(NCCN2CCN(C)CC2)n1 [Compound N15N16D5] | 0.7% | 0.0%
28 | CCCCCCCCCCCCCCCNc1nc(NCCCCCCCCCCC)nc(NCCCN2CCOCC2)n1 [Compound N11N15D8] | 1.1% | 0.5%
29 | CCCCCCCCCCCCCCCCCCNc1nc(NCCCCCCCCCCC)nc(NCCCN2CCN(C)CC2)n1 [Compound N11N18D9] | 0.0% | 1.7%
30 | CCCCCCNc1nc(NCCCCCC)nc(NCCN(C)C)n1 [Compound N6N6D1] | 0.0% | 0.0%
31 | CCCCCCCCCCCCNc1nc(NCCCCCC)nc(NCCCN2CCN(C)CC2)n1 [Compound N6N12D9] | 0.0% | 0.0%
32 | CCCCCCCCCCCCCCCSc1nc(NCCCN2CCOCC2)nc(SCCCCCCCCCCC)n1 [Compound S11S15D8] | 3.0% | 2.1%
33 | CCCCCCCCCCCCCCCCNc1nc(NCCCCCCCCCCCCC)nc(NCC2CCN(C)CC2)n1 [Compound N13N16D10] | 0.0% | 1.1%
34 | CCCCCCCCCCCCCCCCNc1nc(NCCCCCCCCCCCCCCC)nc(NCCCN(C)C)n1 [Compound N15N16D6] | 0.8% | 1.3%
35 | CCCCCCCCCCCCCCCCNc1nc(NCCCCCC)nc(NCCN2CCN(C)CC2)n1 [Compound N6N16D5] | 0.0% | 0.1%
36 | CCCCCCCCCCCCCCCCNc1nc(NCCCCCCCC)nc(NCCN2CCCCC2)n1 [Compound N8N16D4] | 5.3% | 2.3%
37 | CCCCCCCCCCCCCCCCCCNc1nc(NCCCCCCC)nc(NCCN2CCN(C)CC2)n1 [Compound N7N18D5] | 0.7% | 0.1%
38 | CCCCCCCCCCCCCCCCCCSc1nc(NCCCN2CCOCC2)nc(SCCCCCCCCCCCCCCC)n1 [Compound S15S18D8] | 0.0% | 0.5%
39 | CCCCCCCCCCSc1nc(NCCN(C)C)nc(SCCCCCCCCC)n1 [Compound S9S10D1] | 8.6% | 5.0%
40 | CCCCCCCCCNc1nc(NCCCCCCCC)nc(NCCCN2CCOCC2)n1 [Compound N8N9D8] | 0.0% | 0.0%
41 | CCCCCCCCCCCCCCCCCCNc1nc(NCCCCCCCCC)nc(NCCN2CCCCC2)n1 [Compound N9N18D4] | 19.9% | 1.3%
42 | CCCCCCCCCCCCCCCCNc1nc(NCCCCCCCCCCCCC)nc(NCCN2CCCC2)n1 [Compound N13N16D3] | 0.4% | 1.6%
43 | CCCCCCCCCCCCN(CCCCCCCCCCCC)c1nc(NCCCCCCCC)nc(NCCN2CCN(C)CC2)n1 [N8^2N12D5] | 0.0% | 0.4%
44 | CCCCCCCCCCCNc1nc(NCCCCCCC)nc(NCCCN(C)C)n1 [Compound N7N11D6] | 1.1% | 1.5%
45 | CCCCCCCCCNc1nc(NCCCCCC)nc(NCCN(CC)CC)n1 [Compound N6N9D7] | 0.0% | 0.0%
46 | CCCCCCCCCCCCNc1nc(NCCCCCCCCC)nc(NCCCN(C)C)n1 [Compound N9N12D6] | 0.0% | 0.2%
47 | CCCCCCCCCCCCNc1nc(NCCCCCC)nc(NCCN2CCCCC2)n1 [Compound N6N12D4] | 0.0% | 0.0%
48 | CCCCCCCCCCCCNc1nc(NCCCCCC)nc(NCCN2CCN(C)CC2)n1 [Compound N6N12D5] | 0.1% | 0.0%
